Experiments:
Assay in all cases: Caspase Inhibition Assay
[1] = molecular target: T1, Caspase-3 (Homo sapiens, UniProt P42574)
T1 sequence (P42574 whole entry): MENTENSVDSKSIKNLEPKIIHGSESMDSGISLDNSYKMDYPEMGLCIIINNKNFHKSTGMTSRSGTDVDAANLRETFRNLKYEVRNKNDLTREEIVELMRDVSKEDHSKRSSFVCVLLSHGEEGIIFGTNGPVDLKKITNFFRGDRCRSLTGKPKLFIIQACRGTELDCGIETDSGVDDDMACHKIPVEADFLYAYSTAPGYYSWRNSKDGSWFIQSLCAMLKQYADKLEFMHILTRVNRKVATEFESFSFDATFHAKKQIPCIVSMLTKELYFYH

[2] = molecular target: T2, Caspase-9 (Homo sapiens, UniProt P55211)
T2 sequence (P55211 whole entry): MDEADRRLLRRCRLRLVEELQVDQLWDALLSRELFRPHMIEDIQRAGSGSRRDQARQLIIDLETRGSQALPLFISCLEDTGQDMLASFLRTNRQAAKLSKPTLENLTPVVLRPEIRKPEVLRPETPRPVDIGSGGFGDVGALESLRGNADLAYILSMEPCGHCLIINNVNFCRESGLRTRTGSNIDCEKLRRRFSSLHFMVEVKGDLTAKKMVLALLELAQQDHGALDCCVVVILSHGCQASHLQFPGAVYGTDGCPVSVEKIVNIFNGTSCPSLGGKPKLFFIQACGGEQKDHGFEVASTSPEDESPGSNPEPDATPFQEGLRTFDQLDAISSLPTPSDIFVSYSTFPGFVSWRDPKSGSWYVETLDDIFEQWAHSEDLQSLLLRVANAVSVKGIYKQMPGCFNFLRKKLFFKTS

[3] = molecular target: T3, Caspase-4 (Homo sapiens, UniProt P49662)
T3 sequence (P49662 whole entry): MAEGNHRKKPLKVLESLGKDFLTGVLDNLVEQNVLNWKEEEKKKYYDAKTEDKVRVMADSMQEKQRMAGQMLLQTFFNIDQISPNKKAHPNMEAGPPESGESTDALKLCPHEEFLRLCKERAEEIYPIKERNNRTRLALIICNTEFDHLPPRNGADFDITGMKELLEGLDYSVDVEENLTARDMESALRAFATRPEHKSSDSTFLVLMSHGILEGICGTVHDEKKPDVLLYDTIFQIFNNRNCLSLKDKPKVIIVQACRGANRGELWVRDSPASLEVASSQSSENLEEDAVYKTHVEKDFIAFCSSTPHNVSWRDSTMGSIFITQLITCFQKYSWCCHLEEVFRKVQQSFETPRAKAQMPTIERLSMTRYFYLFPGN

[4] = molecular target: T4, Caspase-6 (Homo sapiens, UniProt P55212)
T4 sequence (P55212 whole entry): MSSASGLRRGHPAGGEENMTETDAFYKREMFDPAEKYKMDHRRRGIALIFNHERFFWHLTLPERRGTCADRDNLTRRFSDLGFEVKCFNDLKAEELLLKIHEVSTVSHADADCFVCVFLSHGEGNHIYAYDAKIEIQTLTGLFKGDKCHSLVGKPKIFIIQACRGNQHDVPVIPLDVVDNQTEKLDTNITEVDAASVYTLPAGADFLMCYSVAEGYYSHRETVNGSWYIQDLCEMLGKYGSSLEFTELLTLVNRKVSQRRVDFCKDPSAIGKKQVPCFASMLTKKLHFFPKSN

[5] = molecular target: T5, Caspase-1 (Homo sapiens, UniProt P29466)
T5 sequence (P29466 whole entry): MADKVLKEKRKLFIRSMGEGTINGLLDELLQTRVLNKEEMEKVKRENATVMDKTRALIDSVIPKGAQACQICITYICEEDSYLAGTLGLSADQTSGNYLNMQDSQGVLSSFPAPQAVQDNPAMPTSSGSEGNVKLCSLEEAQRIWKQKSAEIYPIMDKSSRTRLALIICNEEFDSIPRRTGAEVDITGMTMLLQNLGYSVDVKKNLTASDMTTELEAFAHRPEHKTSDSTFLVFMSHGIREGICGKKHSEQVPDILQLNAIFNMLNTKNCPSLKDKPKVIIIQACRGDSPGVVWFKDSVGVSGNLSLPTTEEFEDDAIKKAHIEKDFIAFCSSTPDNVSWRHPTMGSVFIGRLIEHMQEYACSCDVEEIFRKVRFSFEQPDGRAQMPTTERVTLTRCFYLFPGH

[6] = molecular target: T6, Caspase-7 (Homo sapiens, UniProt P55210)
T6 sequence (P55210 whole entry): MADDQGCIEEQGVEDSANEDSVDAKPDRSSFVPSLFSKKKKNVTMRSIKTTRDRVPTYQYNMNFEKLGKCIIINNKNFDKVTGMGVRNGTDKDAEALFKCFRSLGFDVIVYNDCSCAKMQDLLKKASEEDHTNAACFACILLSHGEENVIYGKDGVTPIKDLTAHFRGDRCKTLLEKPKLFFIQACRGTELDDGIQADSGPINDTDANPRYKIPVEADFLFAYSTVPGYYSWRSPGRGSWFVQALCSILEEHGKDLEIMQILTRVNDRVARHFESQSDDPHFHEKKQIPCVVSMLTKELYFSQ

[7] = molecular target: Caspase-8 (Homo sapiens, UniProt Q14790)
[8] = molecular target: T7, Caspase-2 (Homo sapiens, UniProt P42575)
T7 sequence (P42575 whole entry): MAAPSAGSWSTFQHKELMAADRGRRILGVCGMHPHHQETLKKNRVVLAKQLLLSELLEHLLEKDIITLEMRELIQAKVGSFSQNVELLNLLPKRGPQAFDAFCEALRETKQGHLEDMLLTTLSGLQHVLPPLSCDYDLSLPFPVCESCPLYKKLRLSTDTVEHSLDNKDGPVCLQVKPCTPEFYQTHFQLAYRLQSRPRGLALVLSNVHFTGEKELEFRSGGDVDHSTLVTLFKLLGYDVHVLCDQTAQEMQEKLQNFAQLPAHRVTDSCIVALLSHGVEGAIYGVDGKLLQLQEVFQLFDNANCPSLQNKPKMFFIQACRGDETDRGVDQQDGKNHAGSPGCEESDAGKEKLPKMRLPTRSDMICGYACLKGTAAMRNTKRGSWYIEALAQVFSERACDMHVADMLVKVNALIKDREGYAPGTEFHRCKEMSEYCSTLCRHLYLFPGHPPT

Sequence of Caspase-8 (Q14790 217-374 limits assumed): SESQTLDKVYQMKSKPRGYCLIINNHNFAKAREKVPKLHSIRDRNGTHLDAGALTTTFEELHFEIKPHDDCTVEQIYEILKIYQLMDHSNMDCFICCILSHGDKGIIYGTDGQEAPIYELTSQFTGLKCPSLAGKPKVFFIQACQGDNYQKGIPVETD
Sequence of Caspase-8 (Q14790 385-479 limits assumed): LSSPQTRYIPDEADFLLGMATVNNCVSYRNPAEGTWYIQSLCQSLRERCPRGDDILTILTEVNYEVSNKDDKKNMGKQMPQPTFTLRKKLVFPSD

## O=C1Nc2ccc([N+](=O)[O-])cc2C1=O [5-nitro-2,3-dihydro-1H-indole-2,3-dione]
[1]; pH 7.5, 30 °C
  IC50: 3 µM

## O=C1Nc2ccc(S(=O)(=O)N3CCC[C@@H]3CNc3ccccc3)cc2C1=O [5-{[(2R)-2-[(phenylamino)methyl]pyrrolidine-1-]sulfonyl}-2,3-dihydro-1H-indole-2,3-dione]
[1]
  IC50: 5.5 µM
  Ki: 12 µM
[2]
  Ki: > 50 µM
[3]
  Ki: > 50 µM
[4]
  Ki: 57 µM
[5]
  Ki: > 50 µM
[6]
  Ki: 10 µM
[7]
  Ki: > 50 µM
[8]
  Ki: 11 µM

## O=C1Nc2ccc(S(=O)(=O)N3CCC[C@H]3C(=O)Nc3ccccc3)cc2C1=O [(2S)-1-[(2,3-dioxo-2,3-dihydro-1H-indole-5-)sulfonyl]-N-phenylpyrrolidine-2-carboxamide]
[1]
  IC50: 0.14 µM

## CN1C(=O)C(=O)c2cc(S(=O)(=O)N3CCC[C@H]3COc3ccccc3)ccc21 [(S)-1-Methyl-5-{1-[2-(phenoxymethyl)pyrrolidinyl]sulfonyl}isatin]
[1]
  IC50: 0.03 µM
